The text below walks through data of patent US8044198B2, “Sirtuin modulating compounds” (Sirtris Pharmaceuticals, Inc., priority 2005, dated 2011).

Assay [1] deals with T1, SIRT1 (Homo sapiens, UniProt Q96EB6).
T1 sequence (Q96EB6 1-747): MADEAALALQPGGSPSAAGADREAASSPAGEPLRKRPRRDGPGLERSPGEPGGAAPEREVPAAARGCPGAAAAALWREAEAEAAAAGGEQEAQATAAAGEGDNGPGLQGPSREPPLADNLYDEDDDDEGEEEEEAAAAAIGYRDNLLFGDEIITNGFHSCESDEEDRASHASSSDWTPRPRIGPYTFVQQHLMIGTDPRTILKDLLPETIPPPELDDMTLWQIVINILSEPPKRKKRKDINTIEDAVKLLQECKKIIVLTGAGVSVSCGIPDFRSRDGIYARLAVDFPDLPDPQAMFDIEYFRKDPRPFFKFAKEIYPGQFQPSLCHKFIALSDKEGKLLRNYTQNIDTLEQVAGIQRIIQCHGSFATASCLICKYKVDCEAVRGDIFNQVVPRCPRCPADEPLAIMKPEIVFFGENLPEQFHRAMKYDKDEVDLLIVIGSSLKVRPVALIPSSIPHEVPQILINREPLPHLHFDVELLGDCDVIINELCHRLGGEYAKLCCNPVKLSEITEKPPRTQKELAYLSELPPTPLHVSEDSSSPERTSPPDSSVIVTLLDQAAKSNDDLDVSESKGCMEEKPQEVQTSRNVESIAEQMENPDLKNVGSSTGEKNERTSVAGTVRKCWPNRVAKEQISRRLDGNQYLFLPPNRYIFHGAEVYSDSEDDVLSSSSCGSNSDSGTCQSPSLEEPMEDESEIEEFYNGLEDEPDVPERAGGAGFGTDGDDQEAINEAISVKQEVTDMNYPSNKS
The experiment in a line: SIRT1 fluorescence polarization (FP) deacetylation assay with p53-based peptide substrates. The class given is biochemical. The conditions noted are these: SIRT1 activation, read-out: ED50 FP ASSAY. How it is done: A fluorescence polarization or mass spectrometry based assay was used to identify modulators of SIRT1 activity. The same assay may be used to identify modulators of any sirtuin protein. The fluorescence polarization assays utilizes one of two different peptides based on a fragment of p53, a known sirtuin deacetylation target. Compounds 1-18 were tested using a substrate containing peptide 1 having 14 amino acid residues as follows: […](Ac)NleSTEG (SEQ ID NO: 1) wherein K(Ac) is an acetylated lysine residue and Nle is a norleucine. The peptide is labeled with the fluorophore MR121 (excitation 635 nm/emission 680 nm) at the C-terminus and biotin at the N-terminus. The sequence of the peptide substrate is based on p53 with several modifications. In particular, all arginine and leucine residues other than the acetylated lysine have replaced with serine so that the peptide is not susceptible to trypsin cleavage in the absence of deacetylation. In addition, the methionine residue naturally present in the sequence has been replaced with the norleucine because the methionine may be susceptible to oxidation during synthesis and purification. […] This peptide is labeled with the fluorophore MR121 (excitation 635 nm/emission 680 nm) at the C-termini and biotin at the N-termini. The sequence of the peptide substrates are based on p53 with several modifications. In particular, all arginine and leucine residues other than the acetylated lysine residues have replaced with serine so that the peptides are not susceptible to trypsin cleavage in the absence of deacetylation. In addition, the methionine residues naturally present in the sequences have been replaced with the norleucine because the methionine may be susceptible to oxidation during synthesis and purification. […] The peptide is labeled with the fluorophore 5TMR (excitation 540 nm/emission 580 nm) at the C-terminus. The sequence of the peptide substrate is also based on p53 with several modifications. In addition, the methionine residue naturally present in the sequence was replaced with the norleucine because the methionine may be susceptible to oxidation during synthesis and purification.
The peptide substrates were exposed to a sirtuin protein in the presence of NAD^+ to allow deacetylation of the substrate and render it sensitive to cleavage by trypsin. Trypsin was then added and the reaction was carried to completion (i.e., the deacetylated substrate is cleaved) releasing the MR121 or 5TMR fragment. Streptavidin is then added to the reaction where it can bind both the uncleaved substrate (i.e., any remaining acetylated substrate) and the non-fluorescent portion of the cleaved peptide substrate (i.e., the biotin containing fragment). The fluorescence polarization signal observed for the full length peptide substrates bound to streptavidin was higher than the fluorescence polarization signal observed for the released MR121 or 5TMR C-terminal fragment. In this way, the fluorescence polarization obtained is inversely proportional to the level of deacetylation (e.g., the signal is inversely proportional to the activity of the sirtuin protein). Results were read on a microplate fluorescence polarization reader (Molecular Devices Spectramax MD) with appropriate excitation and emission filters.
The fluorescence polarization assays using peptide 1 was conducted as follows: 0.5 μM peptide substrate and 150 μM βNAD^+ is incubated with 0.1 μg/mL of SIRT1 for 60 minutes at 37° C. in a reaction buffer (25 mM Tris-acetate pH8, 137 mM Na—Ac, 2.7 mM K—Ac, 1 mM Mg—Ac, 0.05% Tween-20, 0.1% Pluronic F127, 10 mM CaCl2, 5 mM DTT, 0.025% BSA, 0.15 mM Nicotinamide). Test compounds 1-18 were solubilized in DMSO and added to the reaction at 11 concentrations ranging from 0.7 μM to 100 μM. […]
(In general: Polarisation of emitted light reports the rotation of a fluorescent probe.)

For the next assay, the system named is NCI-H358 cells. The experiment in a line: Cellular ATP Assay (ATPLite 1Step normalized to AlamarBlue viability). The class given is cell-based. The conditions noted are these: Homo sapiens, compounds that raised intracellular ATP levels, read-out: ED50 ATP ASSAY. How it is done:
Cellular ATP levels are an indirect measurement of cellular metabolic rates and, by extension, mitochondrial function. […] The ATP assay is combined with a cellular viability assay so that cellular ATP levels can be normalized to viable cells. Cellular ATP levels were measured using the ATPLite 1Step Kit (PerkinElmer) and cellular viability was measured using the cell permeable dye, AlamarBlue™.
The Cellular ATP Assay is a multiplexed assay that measures both ATP levels and viability of a given cell sample. This assay is run in a 96-well Assay Plate and data are reported as the [ATP]/viability for each well in the Assay Plate.
The ATPLite 1 Step™ Kit is a single-step luminescent cell-based assay for detection of ATP. The kit contains lyophilized substrate mixture, comprised of D-luciferin and the firefly (Photinus pyralis) enzyme luciferase. Additionally, the kit contains a detergent-based reconstitution buffer that induces the lysis of cellular membranes. The luciferase in the assay mixture catalyzes a reaction between the free cellular ATP and D-luciferin to produce bioluminescence according to the schematic reaction outlined below. The amount of light produced is proportional to the cellular ATP concentration.
The AlamarBlue™ Assay is a single-step assay that utilizes a soluble, non-toxic, cell permeable dye that is added to cell growth media. This dye undergoes electron reduction in viable cells but not dead cells. The reduced dye product gives a fluorescent signal which can be monitored with a fluorescence plate reader (excitation 545 nm and emission 575 nm). The amount of fluorescence generated in a given well is proportional to the number of viable cells. The viability signal generated by this assay is used to normalize the ATP signal from the ATPLite 1Step™ assay results.
The material was dissolved in 100% vehicle (DMSO) to yield a final concentration of 10 mM (stock solution). The stock solution was serially diluted with 100% DMSO as described in SOP 7.10.
In this assay NCI-H358 cells (obtained from the American Tissue Culture Collection, ATCC) were seeded in 96 well microplates (10^4 cells/well). The NCI-H358 Growth Culture Media consists of RPMI 1640 Media supplemented with 10% FBS, […] streptomycin, and 100 units/mL penicillin. […] After 48 hours of compound treatment under cell growth conditions, plates were removed from incubator, and 15 μl of AlamarBlue™ dye was added to each well. Cell microplates were incubated with dye for 2 hours under growth conditions, and fluorescence was subsequently measured using a plate reader. Media containing AlamarBlue™ was removed, and plates were washed in 100 μl of PBS per well. This wash was removed, and 200 μl of 1×ATPLite 1Step reagent was added to each well. Luminescence was then measured using a plate reader. The ATP signal for each well, measured by the luminescence scan, was normalized to its corresponding cell viability value, measured by the fluorescence scan, to generate the average ATP level per viable cell unit (ATP/vCell). The ATP/vCell for each treatment was then normalized to the average vehicle ATP/vCell for its respective cell microplate, yielding the normalized ATP/vCell (norm. ATP/vCell). Finally, the norm. ATP/vCell for each unique treatment was averaged across plate replicates, generating the average norm. ATP/vCell.
Each of these ATP levels was normalized to the cell viability in the corresponding treatment well, generating the ATP/vCell value. Each ATP/vCell value was subsequently normalized to its average Vehicle ATP/vCell values for its respective cell microplate.
Data are represented as the normalized ATP/vCell (arbitrary units). […] These values represent an average of three plate replicates.
A number of compounds were screened for their affect on ATP levels in the assay as described in Example 5. […] NA means that the compound was not tested using the indicated assay.
(In general: ATP-based viability assays read luminescence as a measure of living cells.)

Assay [2] has as its target T1, SIRT1. The experiment in a line: SIRT1 mass spectrometry (MS) based deacetylation assay. The class given is biochemical. Conditions: for EC50: SIRT1 activation, mass spectrometry assay, read-out: ED50 MS ASSAY; for FOLD ACT. MS: fold activation of SIRT1 as determined by MS.

For the compound `CN(C)c1cccc(C(=O)Nc2cccc(-c3nc4ncccc4o3)c2)c1` [Compound 42], the figures for the EC50 on SIRT1 [1], with NCI-H358 cells and on SIRT1 [2] were 5 to 50 µM, below 50 µM and 5 to 50 µM, respectively. In addition, the “FOLD ACT. MS” value on SIRT1 [2] is given as “B (B (Fold Activation <250%))”.
As for `COc1ccc(C(=O)Nc2cccc(-c3nc4ncccc4o3)c2)cc1OC` [Compound 52], the EC50 is 5 to 50 µM at SIRT1 [1], below 50 µM in the assay with NCI-H358 cells and 5 to 50 µM on SIRT1 [2]. Also, the “FOLD ACT. MS” value on SIRT1 [2] is reported as “B (B (Fold Activation <250%))”.
For the compound `O=C(Nc1ccc(-c2nc3ncccc3o2)cc1)c1ccccc1` [Compound 37], the EC50 on SIRT1 [1] and on SIRT1 [2] was above 150 µM each time.
As for `COc1cccc(C(=O)Nc2ccc(-c3nc4ncccc4o3)cc2)c1C` [Compound 31], the EC50 at SIRT1 [1] and on SIRT1 [2] was above 150 µM in each case.
`O=C(Nc1ccc(-c2nc3ncccc3o2)cc1)c1ccc(N2CCOCC2)cc1` [Compound 20]: the EC50 at SIRT1 [1] and on SIRT1 [2] was above 150 µM in each case.
`CN(C)c1ccc(C(=O)Nc2ccc(-c3nc4ncccc4o3)cc2)cc1` [Compound 24]: the EC50 at SIRT1 [1] and at SIRT1 [2] was above 150 µM each time.
As to `COc1ccc(C(=O)Nc2ccc(-c3nc4ncccc4o3)cc2)c(OC)c1` [Compound 36], the EC50 on SIRT1 [1] and at SIRT1 [2] was above 150 µM throughout.
For `COc1cc(C)ccc1C(=O)Nc1cccc(-c2nc3ncccc3o2)c1` [Compound 51], at SIRT1 [1], the EC50 lay within 5 to 50 µM. Moreover, on SIRT1 [2], the EC50 was in the range of 5 to 50 µM and the “FOLD ACT. MS” value is reported as “B (B (Fold Activation <250%))”.
